Common to all, as to assay: KinomeScan kinase panel, single concentration 10 µM
Common to all, as to assay type: binding

Assay [1] addresses T1, KinomeScan kinase panel (Homo sapiens, UniProt Q99683).
T1 construct: purchased DiscoveRx (KinomeScan)
T1 sequence (Q99683 1-1374): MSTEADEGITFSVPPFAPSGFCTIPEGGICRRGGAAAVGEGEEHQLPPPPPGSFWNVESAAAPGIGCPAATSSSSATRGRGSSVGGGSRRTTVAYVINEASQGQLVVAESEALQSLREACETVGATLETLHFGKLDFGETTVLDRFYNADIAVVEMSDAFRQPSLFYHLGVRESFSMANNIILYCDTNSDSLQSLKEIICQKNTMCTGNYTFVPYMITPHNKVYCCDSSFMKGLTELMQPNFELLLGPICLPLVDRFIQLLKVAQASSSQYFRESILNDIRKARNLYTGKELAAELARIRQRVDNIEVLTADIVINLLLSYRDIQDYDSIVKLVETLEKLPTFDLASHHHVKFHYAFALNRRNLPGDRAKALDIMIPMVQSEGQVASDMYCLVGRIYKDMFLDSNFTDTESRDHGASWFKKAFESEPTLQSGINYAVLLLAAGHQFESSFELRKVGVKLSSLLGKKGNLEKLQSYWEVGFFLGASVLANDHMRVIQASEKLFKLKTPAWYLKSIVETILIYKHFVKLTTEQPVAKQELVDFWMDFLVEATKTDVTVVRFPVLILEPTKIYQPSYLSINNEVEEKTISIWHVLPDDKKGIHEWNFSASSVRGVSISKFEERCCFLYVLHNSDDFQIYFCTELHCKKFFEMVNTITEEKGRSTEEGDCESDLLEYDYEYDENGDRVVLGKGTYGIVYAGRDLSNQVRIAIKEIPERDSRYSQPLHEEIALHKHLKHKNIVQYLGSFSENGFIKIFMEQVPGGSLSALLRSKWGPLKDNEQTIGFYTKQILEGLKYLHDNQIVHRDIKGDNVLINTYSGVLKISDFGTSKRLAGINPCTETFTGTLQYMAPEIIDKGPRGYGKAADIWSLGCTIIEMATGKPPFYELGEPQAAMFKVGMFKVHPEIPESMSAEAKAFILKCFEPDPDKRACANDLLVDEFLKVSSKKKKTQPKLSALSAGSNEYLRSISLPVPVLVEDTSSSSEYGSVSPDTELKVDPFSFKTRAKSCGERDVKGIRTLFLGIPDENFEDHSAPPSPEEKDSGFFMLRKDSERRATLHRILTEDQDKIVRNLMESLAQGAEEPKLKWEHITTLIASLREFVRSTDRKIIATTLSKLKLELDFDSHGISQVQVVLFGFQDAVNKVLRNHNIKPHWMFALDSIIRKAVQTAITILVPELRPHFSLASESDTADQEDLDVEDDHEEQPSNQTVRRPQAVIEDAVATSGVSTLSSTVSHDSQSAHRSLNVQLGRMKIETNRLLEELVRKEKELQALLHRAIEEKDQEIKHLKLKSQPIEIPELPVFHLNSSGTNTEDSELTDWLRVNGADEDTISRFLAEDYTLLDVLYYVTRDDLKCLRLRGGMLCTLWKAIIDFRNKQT
As to conditions: read-out: score (%).

Assay [2] concerns the target T2, KinomeScan kinase panel (Homo sapiens, UniProt O75676).
T2 construct: purchased DiscoveRx (KinomeScan)
Particulars: 10 µM, read-out: score (%).

Assay [3] has as its target T3, KinomeScan kinase panel (Homo sapiens, UniProt P15056, V600E).
T3 construct: purchased DiscoveRx (KinomeScan)
Particulars: BRAF(V600E), 10 µM; read-out: score (%).

For assay [4], the target named is T4, KinomeScan kinase panel (Homo sapiens, UniProt P54764).
T4 construct: purchased DiscoveRx (KinomeScan)
T4 sequence (P54764 20-986): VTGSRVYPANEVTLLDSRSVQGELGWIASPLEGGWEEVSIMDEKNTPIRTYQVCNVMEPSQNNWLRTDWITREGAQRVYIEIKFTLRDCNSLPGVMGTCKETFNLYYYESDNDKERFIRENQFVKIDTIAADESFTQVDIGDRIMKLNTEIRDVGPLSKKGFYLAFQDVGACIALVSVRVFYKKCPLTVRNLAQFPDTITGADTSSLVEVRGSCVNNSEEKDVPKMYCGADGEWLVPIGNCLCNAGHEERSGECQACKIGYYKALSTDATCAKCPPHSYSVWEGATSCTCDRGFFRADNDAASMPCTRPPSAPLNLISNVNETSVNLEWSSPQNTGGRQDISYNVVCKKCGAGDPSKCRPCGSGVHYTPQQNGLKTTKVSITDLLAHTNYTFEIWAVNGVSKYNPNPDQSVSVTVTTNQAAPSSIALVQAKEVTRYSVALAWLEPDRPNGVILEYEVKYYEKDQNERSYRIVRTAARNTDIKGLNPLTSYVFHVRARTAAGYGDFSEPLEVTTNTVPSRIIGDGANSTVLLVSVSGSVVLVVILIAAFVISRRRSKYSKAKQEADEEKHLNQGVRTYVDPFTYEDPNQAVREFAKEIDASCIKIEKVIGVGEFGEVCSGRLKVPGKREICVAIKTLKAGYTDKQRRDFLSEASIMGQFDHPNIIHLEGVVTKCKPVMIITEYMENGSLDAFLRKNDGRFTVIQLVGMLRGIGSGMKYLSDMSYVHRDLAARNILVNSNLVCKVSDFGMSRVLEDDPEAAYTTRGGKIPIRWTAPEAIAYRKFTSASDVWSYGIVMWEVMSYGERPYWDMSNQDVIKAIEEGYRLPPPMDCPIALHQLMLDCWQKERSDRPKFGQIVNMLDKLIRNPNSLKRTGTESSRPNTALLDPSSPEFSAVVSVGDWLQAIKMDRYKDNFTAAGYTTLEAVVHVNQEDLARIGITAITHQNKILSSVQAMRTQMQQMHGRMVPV
Particulars: EPHA4, 10 µM; read-out: score (%).

Assay [5] addresses T5, KinomeScan kinase panel (Homo sapiens, UniProt Q8TDX7).
T5 construct: purchased DiscoveRx (KinomeScan)
Particulars: NEK7, 10 µM; read-out: score (%).

Assay [6] addresses T6, KinomeScan kinase panel (Homo sapiens, UniProt P36888).
T6 construct: purchased DiscoveRx (KinomeScan)
T6 sequence (P36888 27-993): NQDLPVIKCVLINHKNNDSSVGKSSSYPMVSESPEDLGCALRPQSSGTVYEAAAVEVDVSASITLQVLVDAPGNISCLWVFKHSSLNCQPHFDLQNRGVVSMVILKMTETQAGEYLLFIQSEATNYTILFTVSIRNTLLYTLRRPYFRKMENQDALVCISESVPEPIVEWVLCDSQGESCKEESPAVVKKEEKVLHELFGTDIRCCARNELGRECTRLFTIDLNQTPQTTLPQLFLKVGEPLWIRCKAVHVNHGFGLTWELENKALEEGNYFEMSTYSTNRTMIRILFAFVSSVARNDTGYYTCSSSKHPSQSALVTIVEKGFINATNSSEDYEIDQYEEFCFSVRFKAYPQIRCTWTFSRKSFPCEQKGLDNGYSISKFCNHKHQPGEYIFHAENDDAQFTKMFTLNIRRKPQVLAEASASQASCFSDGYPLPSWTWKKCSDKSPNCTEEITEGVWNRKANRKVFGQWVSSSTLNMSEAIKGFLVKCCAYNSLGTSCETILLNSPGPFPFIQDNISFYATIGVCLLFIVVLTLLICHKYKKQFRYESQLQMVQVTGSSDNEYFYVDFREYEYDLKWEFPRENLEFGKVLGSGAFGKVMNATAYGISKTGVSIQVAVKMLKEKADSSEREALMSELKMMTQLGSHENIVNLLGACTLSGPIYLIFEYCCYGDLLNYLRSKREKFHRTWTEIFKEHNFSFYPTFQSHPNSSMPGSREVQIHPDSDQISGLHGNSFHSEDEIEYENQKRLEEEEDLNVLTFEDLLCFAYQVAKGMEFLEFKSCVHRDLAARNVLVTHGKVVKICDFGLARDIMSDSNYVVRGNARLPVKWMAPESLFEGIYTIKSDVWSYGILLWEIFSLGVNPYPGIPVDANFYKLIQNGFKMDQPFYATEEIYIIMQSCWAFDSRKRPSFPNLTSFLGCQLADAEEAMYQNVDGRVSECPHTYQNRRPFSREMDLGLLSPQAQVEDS
As to conditions: FLT3, 10 µM; read-out: score (%).

In assay [7] the target is T7, KinomeScan kinase panel (Homo sapiens, UniProt P21127).
T7 construct: purchased DiscoveRx (KinomeScan)
T7 sequence (P21127 whole entry): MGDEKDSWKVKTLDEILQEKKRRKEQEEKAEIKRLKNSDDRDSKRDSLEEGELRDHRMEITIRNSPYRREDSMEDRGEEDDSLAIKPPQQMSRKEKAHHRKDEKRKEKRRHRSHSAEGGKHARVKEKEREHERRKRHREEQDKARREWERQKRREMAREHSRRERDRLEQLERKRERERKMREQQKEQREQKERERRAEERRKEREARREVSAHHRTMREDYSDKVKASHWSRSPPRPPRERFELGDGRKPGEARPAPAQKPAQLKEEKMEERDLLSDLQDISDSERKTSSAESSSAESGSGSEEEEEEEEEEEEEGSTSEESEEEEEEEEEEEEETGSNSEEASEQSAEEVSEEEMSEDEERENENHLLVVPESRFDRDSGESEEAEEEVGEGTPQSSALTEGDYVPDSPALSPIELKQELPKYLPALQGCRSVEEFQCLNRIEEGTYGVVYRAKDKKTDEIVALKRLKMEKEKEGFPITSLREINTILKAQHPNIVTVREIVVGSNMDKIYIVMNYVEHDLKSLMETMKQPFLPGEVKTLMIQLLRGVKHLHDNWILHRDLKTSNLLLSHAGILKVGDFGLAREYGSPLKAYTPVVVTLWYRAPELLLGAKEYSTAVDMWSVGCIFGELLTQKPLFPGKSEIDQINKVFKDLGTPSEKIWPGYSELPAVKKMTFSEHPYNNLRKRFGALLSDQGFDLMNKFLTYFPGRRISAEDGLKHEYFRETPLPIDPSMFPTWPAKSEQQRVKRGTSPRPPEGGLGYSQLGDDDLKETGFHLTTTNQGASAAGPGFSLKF
Particulars: CDC2L1, 10 µM; read-out: score (%).

Where [8] appears, read: kinase RPS6KA4(Kin.Dom.1-N-terminal).
Setting [9] is: kinase RPS6KA4(Kin.Dom.2-C-terminal).

SMILES strings stand for the structures. Where two headings read alike, the source gives them in different places. A value given as a limit tells only on which side of the number the result lay.

In article PMC4457528, “Identification of Novel Small Molecule Inhibitors of Oncogenic RET Kinase” (PLoS ONE, 2015) one finds remaining binding data, which are given here for three molecules.

T2 sequence (O75676 whole entry): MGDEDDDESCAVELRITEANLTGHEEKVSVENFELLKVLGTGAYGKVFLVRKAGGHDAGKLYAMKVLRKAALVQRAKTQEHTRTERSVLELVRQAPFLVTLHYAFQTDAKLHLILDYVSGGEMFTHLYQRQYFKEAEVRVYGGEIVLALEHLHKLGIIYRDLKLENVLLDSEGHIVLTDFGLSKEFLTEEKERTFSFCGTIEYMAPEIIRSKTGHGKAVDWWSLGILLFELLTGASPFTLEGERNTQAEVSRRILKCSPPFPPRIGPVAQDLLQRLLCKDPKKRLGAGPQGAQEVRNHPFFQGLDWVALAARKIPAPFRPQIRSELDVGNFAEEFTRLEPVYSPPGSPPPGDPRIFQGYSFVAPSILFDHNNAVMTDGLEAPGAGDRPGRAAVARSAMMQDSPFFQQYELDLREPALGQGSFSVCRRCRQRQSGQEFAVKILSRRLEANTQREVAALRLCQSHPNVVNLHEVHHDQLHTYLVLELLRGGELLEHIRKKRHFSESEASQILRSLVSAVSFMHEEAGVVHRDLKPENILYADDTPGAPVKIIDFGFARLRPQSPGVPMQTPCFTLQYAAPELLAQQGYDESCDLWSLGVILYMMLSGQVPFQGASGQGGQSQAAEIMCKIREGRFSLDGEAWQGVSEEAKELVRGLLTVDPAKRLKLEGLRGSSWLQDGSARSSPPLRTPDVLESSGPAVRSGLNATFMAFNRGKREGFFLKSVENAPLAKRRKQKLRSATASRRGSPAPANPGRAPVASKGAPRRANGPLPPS
T3 sequence (P15056 whole entry V600E): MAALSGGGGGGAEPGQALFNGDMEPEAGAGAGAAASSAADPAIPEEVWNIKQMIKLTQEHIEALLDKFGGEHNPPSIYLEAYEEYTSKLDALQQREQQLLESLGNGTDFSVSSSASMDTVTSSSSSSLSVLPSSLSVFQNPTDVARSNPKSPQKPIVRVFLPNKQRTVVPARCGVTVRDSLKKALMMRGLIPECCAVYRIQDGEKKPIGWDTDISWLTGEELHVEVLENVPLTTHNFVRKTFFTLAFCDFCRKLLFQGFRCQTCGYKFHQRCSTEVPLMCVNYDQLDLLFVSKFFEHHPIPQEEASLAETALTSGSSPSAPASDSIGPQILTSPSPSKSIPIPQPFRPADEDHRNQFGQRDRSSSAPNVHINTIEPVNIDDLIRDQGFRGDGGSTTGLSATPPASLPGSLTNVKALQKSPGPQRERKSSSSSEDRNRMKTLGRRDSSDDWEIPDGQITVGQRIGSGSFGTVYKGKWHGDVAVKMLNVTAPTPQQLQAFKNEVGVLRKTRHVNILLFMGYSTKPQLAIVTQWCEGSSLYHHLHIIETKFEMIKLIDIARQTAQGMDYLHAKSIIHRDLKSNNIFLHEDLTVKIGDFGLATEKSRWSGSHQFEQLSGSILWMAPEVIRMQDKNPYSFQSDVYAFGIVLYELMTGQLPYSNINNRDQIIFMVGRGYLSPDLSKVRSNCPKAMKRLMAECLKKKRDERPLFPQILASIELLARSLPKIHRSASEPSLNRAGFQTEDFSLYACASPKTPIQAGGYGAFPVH
T5 sequence (Q8TDX7 whole entry): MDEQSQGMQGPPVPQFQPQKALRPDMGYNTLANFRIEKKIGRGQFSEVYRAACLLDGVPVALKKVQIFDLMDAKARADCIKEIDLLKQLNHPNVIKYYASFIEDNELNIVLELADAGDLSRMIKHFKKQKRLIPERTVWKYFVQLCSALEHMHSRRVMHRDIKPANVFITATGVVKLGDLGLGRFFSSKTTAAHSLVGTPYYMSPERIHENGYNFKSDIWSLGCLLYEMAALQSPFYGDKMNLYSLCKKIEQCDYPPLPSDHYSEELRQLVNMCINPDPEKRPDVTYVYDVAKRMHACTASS

As for `CCN1CCN(Cc2ccc(NC(=O)c3ccc(C)c(NC(=O)c4cncc(-c5cccs5)c4)c3)cc2C(F)(F)F)CC1` [ALW-II-41-27], the remaining binding at 10 µM at KinomeScan kinase panel [1] (ASK1, 10 µM) was > 30%; on KinomeScan kinase panel [2] (setting [8]), 6.3%; on KinomeScan kinase panel [2] (setting [9]) it was > 30%; on KinomeScan kinase panel [3], 0.55%; on KinomeScan kinase panel [4], 0%; on KinomeScan kinase panel [5] it was > 30%. In addition, the values for the remaining binding at 10 µM on KinomeScan kinase panel [6] and at KinomeScan kinase panel [7] were 0.65% and 1.5%, respectively.
Turning to `CCN1CCN(Cc2ccc(NC(=O)c3ccc(C)c(/C=C/c4cnc5[nH]ccc5c4Cl)c3)cc2C(F)(F)F)CC1` [HG-6-63-01, (E)-3-(2-(4-chloro-1H-pyrrolo[2,3-b]pyridin-5-yl)vinyl)-N-(4-((4-ethylpiperazin-1-yl)methyl)-3-(trifluoromethyl)phenyl)-4-methylbenzamide], the remaining binding at 10 µM on KinomeScan kinase panel [1] (MAP3K5, 10 µM) was > 30%; at KinomeScan kinase panel [2] (RPS6KA4(Kin.Dom.1)), > 30%; on KinomeScan kinase panel [2] (RPS6KA4(Kin.Dom.2)), > 30%; at KinomeScan kinase panel [3] it was 0.2%; on KinomeScan kinase panel [4] it was 0.55%; at KinomeScan kinase panel [5], > 30%. Besides, the remaining binding at 10 µM at KinomeScan kinase panel [6] stood at 0.1%; at KinomeScan kinase panel [7], 13%.
On to `CCN1CCN(Cc2ccc(NC(=O)c3ccc(C)c(C#Cc4cccnc4)c3)cc2C(F)(F)F)CC1` [XMD15-44], for which the remaining binding at 10 µM at KinomeScan kinase panel [1] (ASK1, 10 µM) is > 30%; at KinomeScan kinase panel [2] (setting [8]), 30%; at KinomeScan kinase panel [2] (setting [9]), 99%; on KinomeScan kinase panel [3], 0.05%; at KinomeScan kinase panel [4], 0%; at KinomeScan kinase panel [5], 88%. For the same molecule, the remaining binding at 10 µM was 0.25% at KinomeScan kinase panel [6] and 2.5% at KinomeScan kinase panel [7].
